Measured values from article PMC9031227, “Structure-Activity Relationship Investigations of Novel Constrained Chimeric Peptidomimetics of SOCS3 Protein Targeting JAK2” (Pharmaceuticals, 2022).
Entries after “also recorded” stand apart in the source; their conditions may differ. Where a SMILES comes first, the peptide text is derived from it. Bridges are numbered along the chain shown (N, C = ends). [ ]: non-standard residue; d: D form. R8 = C=CCCCCCC[C@@](C)(N)C(=O)O; S5 = C=CCCC[C@](C)(N)C(=O)O; βAla = NCCC(=O)O

What was measured:
[1] = target: T1, His-tagged Catalytic Domain of JAK2 (residues 826–1132) (Homo sapiens, UniProt O60674); test: MicroScale Thermophoresis (MST) binding to JAK2 catalytic domain; conditions: RED-tris-NTA labelled His-JAK2 catalytic domain, 25 °C, 50 mM Tris-HCl, 150 mM NaCl, 0.05% Brij35, 1 mM DTT, 10% glycerol, 15% TFE, pH 7.5, Langmuir isotherm fit
T1 construct: His-tagged Catalytic Domain of JAK2 (residues 826–1132); purchased Carna Biosciences
Experimental: MST experiments were carried out with a Monolith NT 115 system (NanoTemper Technologies, München, Germania) equipped with 40% LED and 40% IR-laser power. […] The protein concentration was adjusted to 200 nM in labeling buffer (Nano Temper Technologies), while the dye concentration was set to 100 nM. Equal volumes (100 μL) of protein and fluorescent dye solutions were mixed and incubated at room temperature in the dark for 30 min. KIRCONG chim analogues were used in the following concentrations: KIRCONG amide 459 μM, KIRCONG disulfide 470 μM, KIRCONG i/i+5 525 μM, and KIRCONG i/i+7 585 μM in labeling buffer. Standard capillaries were employed for analysis, at 25 °C in 50 mM Tris-HCl, 150 mM NaCl, 0.05% Brij35, 1 mM DTT, 10% glycerol, 15% TFE buffer at pH 7.5, as already reported. The equation implemented by the software MO-S002 MO Affinity Analysis, used for fitting data at different concentrations, is based on Langmuir binding isotherm.
To evaluate the ability of KIRCONG analogues to recognize JAK2 catalytic domain, in vitro MST experiments were carried out (Figure 5), keeping JAK2 concentration constant and increasing ligands’ concentrations.

[2] = Serum stability in fetal bovine serum; format: in vitro ADME; conditions: 37 °C; for improvement of stability to proteases after 24 h: 25% FBS, 24 h of analysis, compared with the linear peptide; for metabolised at 3 h, 500 µM: read-out: degraded after 3 h of incubation
Experimental: KIRCONG analogues (~1 mg/mL, 500 μM on average), were incubated with fetal bovine serum (FBS) at 25% (w/v) at 37 °C as previously described. At the following time points: 0, 3, 17, 20, 23 and 42 h, 50 µL aliquots of the solutions were mixed with 50 µL of 15% trichloroacetic acid (TCA) to allow the precipitation of serum proteins, they were stored at −20 °C for at least 15 min. After centrifugation (13,000 rpm for 15 min) the supernatants were recovered. Samples were analyzed by RP-HPLC on a HPLC LC-4000 series (Jasco) equipped with UV detector using a C18-Kinetek column from Phenomenex (Milan, Italy), by employing a gradient from 5 to 70% of B (acetonitrile 0.1% TFA) versus A (water 0.1% TFA) in 20 min. Peptide compounds were detected by recording the absorbance at 210 nm and percentages were quantified by assuming 100% their peak areas at t = 0. All stability tests were performed at least in triplicates and reported data are averaged values.
To evaluate if introduced chemical modifications in KIRCONG analogues influence their stabilities to proteolytic degradation, pure compounds were incubated with fetal bovine serum (FBS) and the decrease of chromatographic peaks was followed during time In Figure 4, the area percentages of new derivatives of KIRCONG chim versus time are reported. After 3 h of incubation, KIRCONG chim is degraded by 30% while KIRCONG disulfide of 20% and others less than 10%.
Figure 4 Serum stability assay of KIRCONG chim derivatives. The serum stability was evaluated by incubation in 25% FBS for 42 h. Residual peptide amount is expressed as the percentage of the initial amount versus time.

[3] = Solubility observations in TFE/aqueous mixtures (CD and NMR samples); format: physicochemical
Experimental: CD spectroscopy experiments were carried out by employing a Jasco J-815 spectropolarimeter (JASCO, Tokyo, Japan), at room temperature in the spectral range 190–260 nm and spectra are averaged over two scans, to which blanks were subtracted. CD signals were converted to mean residue ellipticity with deg* cm^2*dmol^−1*res^−1 as units. Scan speed value was 20 nm/min, band width 2.0 nm, resolution 0.2 nm, sensitivity 50 mdeg and response 4 s. Samples were prepared by dilution of freshly prepared stock solutions in 100% TFE (2,2,2-Trifluoroethanol) (1 mM on average). In the CD samples compound concentrations were 100 μM. Spectra were acquired in a quartz cuvette with a path-length of 0.1 cm in mixtures TFE/phosphate buffer, 10 mM at pH 7.4 [52].
NMR spectra of KIRCONG i/i+5 and KIRCONG i/i+7 stapled peptides were registered at 25 °C on a Varian Unity Inova 600 MHz spectrometer provided with a cold probe. […] NMR spectra for KIRCONG i/i+7 were recorded in H2O/TFE 60/40 v/v (peptide concentration 411 μM, pH 4.65). […] To conduct NMR structural analyses the following 2D [^1H, ^1H] experiments were recorded: TOCSY (Total Correlation Spectroscopy), NOESY (Nuclear Overhauser Enhancement Spectroscopy), ROESY (Rotating Frame Overhauser Enhancement Spectroscopy) and DQFCOSY (Double Quantum-Filtered Correlated Spectroscopy). […]

[4] = 25% (w/v) fetal bovine serum, 25% (w/v) FBS, peptide ~1 mg/mL (500 µM on average), TCA precipitation, RP-HPLC C18, UV 210 nm, peak area vs t = 0, mean of at least triplicates

T1 sequence (O60674 826-1132): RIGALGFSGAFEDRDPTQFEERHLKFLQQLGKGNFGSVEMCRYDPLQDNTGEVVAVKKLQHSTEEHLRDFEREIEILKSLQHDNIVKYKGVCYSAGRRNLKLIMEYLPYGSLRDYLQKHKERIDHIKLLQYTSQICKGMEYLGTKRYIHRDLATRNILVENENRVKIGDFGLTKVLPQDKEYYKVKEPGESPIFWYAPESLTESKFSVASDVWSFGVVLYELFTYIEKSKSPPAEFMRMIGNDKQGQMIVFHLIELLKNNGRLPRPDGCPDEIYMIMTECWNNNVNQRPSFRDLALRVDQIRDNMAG

Row | Kd [1] [µM] | metabolised at 3 h, 500 µM [2, 4] [%] | Structure (SMILES) | improvement of stability to proteases after 24 h [2] | KD [1] | also measured
1 | 200 |  | CC(C)C[C@@H]1NC(=O)[C@H](CCC(N)=O)NC(=O)[C@H](Cc2ccc(O)cc2)NC(=O)[C@H](CCC(=O)O)NC(=O)[C@H](CO)NC(=O)[C@H](CCCCN)NC(=O)[C@H](CO)NC(=O)[C@H](CO)NC(=O)[C@H](Cc2ccccc2)NC(=O)CCNC(=O)[C@@H](N)CCCCNC(=O)CC[C@@H](C(=O)NCC(=O)O)NC(=O)[C@H]([C@@H](C)O)NC(=O)[C@H](C(C)C)NC(=O)[C@H](C)NC(=O)[C@H](CO)NC(=O)[C@H](Cc2c[nH]c3ccccc23)NC(=O)[C@H](Cc2ccc(O)cc2)NC(=O)[C@H](Cc2ccccc2)NC(=O)CCNC(=O)CCNC1=O [KIRCONG amide] (H-K[βAla]FSSKSEYQL[βAla][βAla]FYWSAVTEG-OH; lactam 1-21) | do not produce a significant improvement of stability |  | 
2 |  | 30 | CC(=O)N[C@@H](CCCCN)C(=O)NCCC(=O)N[C@@H](Cc1ccccc1)C(=O)N[C@@H](CO)C(=O)N[C@@H](CO)C(=O)N[C@@H](CCCCN)C(=O)N[C@@H](CO)C(=O)N[C@@H](CCC(=O)O)C(=O)N[C@@H](Cc1ccc(O)cc1)C(=O)N[C@@H](CCC(N)=O)C(=O)N[C@@H](CC(C)C)C(=O)NCCC(=O)NCCC(=O)N[C@@H](Cc1ccccc1)C(=O)N[C@@H](Cc1ccc(O)cc1)C(=O)N[C@@H](Cc1c[nH]c2ccccc12)C(=O)N[C@@H](CO)C(=O)N[C@@H](C)C(=O)N[C@H](C(=O)N[C@H](C(N)=O)[C@@H](C)O)C(C)C [KIRCONG chim, reference compound] (Ac-K[βAla]FSSKSEYQL[βAla][βAla]FYWSAVT-NH2) |  |  | residual concentration after 42 h ([2]; 25% (w/v) FBS, peptide ~1 mg/mL (500 µM on average), 42 h, TCA precipitation, RP-HPLC C18, UV 210 nm, peak area vs t = 0, mean of at least triplicates): completely degraded
3 | 600 | 20 | CC(C)C[C@@H]1NC(=O)[C@H](CCC(N)=O)NC(=O)[C@H](Cc2ccc(O)cc2)NC(=O)[C@H](CCC(=O)O)NC(=O)[C@H](CO)NC(=O)[C@H](CCCCN)NC(=O)[C@H](CO)NC(=O)[C@H](CO)NC(=O)[C@H](Cc2ccccc2)NC(=O)CCNC(=O)[C@@H](N)CSSC[C@@H](C(=O)NCC(=O)O)NC(=O)[C@H]([C@@H](C)O)NC(=O)[C@H](C(C)C)NC(=O)[C@H](C)NC(=O)[C@H](CO)NC(=O)[C@H](Cc2c[nH]c3ccccc23)NC(=O)[C@H](Cc2ccc(O)cc2)NC(=O)[C@H](Cc2ccccc2)NC(=O)CCNC(=O)CCNC1=O [KIRCONG disulfide] (H-C[βAla]FSSKSEYQL[βAla][βAla]FYWSAVTCG-OH; disulfide 1-21) | do not produce a significant improvement of stability |  | 
4 |  |  | CC(C)C[C@H](NC(=O)[C@H](CCC(N)=O)NC(=O)[C@H](Cc1ccc(O)cc1)NC(=O)[C@H](CCC(=O)O)NC(=O)[C@H](CO)NC(=O)[C@H](CCCCN)NC(=O)[C@H](CO)NC(=O)[C@H](CO)NC(=O)[C@@H](N)Cc1ccccc1)C(=O)NCCC(=O)N[C@@]1(C)CCCC=CCCC[C@@](C)(C(=O)N[C@H](C(=O)N[C@H](C(=O)NCC(=O)O)[C@@H](C)O)C(C)C)NC(=O)[C@H](CO)NC(=O)[C@H](Cc2c[nH]c3ccccc23)NC(=O)[C@H](Cc2ccc(O)cc2)NC(=O)[C@H](Cc2ccccc2)NC1=O [KIRCONG i/i+5] (H-FSSKSEYQL[βAla][S5]FYWS[S5]VTG-OH; staple 11-16) |  | did not allow to obtain KD values; also recorded: No binding | remaining at 42 h, 500 µM ([2]; 25% (w/v) fetal bovine serum, 25% (w/v) FBS, peptide ~1 mg/mL (500 µM on average), 42 h, TCA precipitation, RP-HPLC C18, UV 210 nm, peak area vs t = 0, mean of at least triplicates, read-out: residual concentration after 42 h): 85%
5 |  |  | CC(C)C[C@@H]1NC(=O)[C@](C)(NC(=O)[C@H](Cc2ccc(O)cc2)NC(=O)[C@H](CCC(=O)O)NC(=O)[C@H](CO)NC(=O)[C@H](CCCCN)NC(=O)[C@H](CO)NC(=O)[C@H](CO)NC(=O)[C@@H](N)Cc2ccccc2)CCCCCC/C=C/CCC[C@@](C)(C(=O)N[C@H](C(=O)N[C@H](C(=O)NCC(=O)O)[C@@H](C)O)C(C)C)NC(=O)[C@H](CO)NC(=O)[C@H](Cc2c[nH]c3ccccc23)NC(=O)[C@H](Cc2ccc(O)cc2)NC(=O)[C@H](Cc2ccccc2)NC(=O)CCNC1=O [KIRCONG i/i+7] (H-FSSKSEY[R8]L[βAla]FYWS[S5]VTG-OH; staple (E) 8-15) |  | did not allow to obtain KD values; also recorded: No binding | solubility at NMR concentration in 15% TFE ([3]; H2O/TFE 85/15 v/v, NMR peptide concentration 411 µM): poorly soluble; solubility in TFE/phosphate buffer (CD sample) ([3]; TFE/phosphate buffer 10 mM pH 7.4, CD sample concentration 100 µM, diluted from 100% TFE stock): not soluble
